Data: patent US5686424A, “2-oxoethyl derivatives as immunosuppressants” (Miles Inc., priority 1995, dated 1997)
Where a name gives a salt, the structure may show the parent alone.

Experiments:
[1] = target: FKBP (Homo sapiens, UniProt P62942); test: PPIase Inhibition Assay; format: biochemical; settings: concentration of inhibitor required for 50% inhibition of enzyme activity; FKBP, substrate Succinyl-Ala-Phe-Pro-Phe-para-nitroanilide; TABLE I
Procedure, shortened: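 Chymotrypsin-coupled isomerization of Succinyl-Ala-Phe-Pro-Phe-para-nitroanilide by FKBP in ice-cold 25 mM HEPES pH 7.8, 100 mM NaCl, compound in DMSO. A390 followed 90 sec; first-order rate constants give % activity remaining after subtracting uncatalyzed rate; IC50 by linear regression of V-/V+ versus concentration.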

[2] = tested on: human T-cells; test: Suppression of Human T-Cell Proliferation Assay (PHA-stimulated, [3H]-thymidine incorporation); format: cell-based; settings: concentration inhibiting [3H]-thymidine incorporation of PHA-stimulated T-cells by 50%, 72 hours; TABLE 2; read-out: IC50
Procedure, shortened: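 SRBC-rosette-purified human peripheral T-cells stimulated with PHA-M (40 μg/ml stock) and compound dilutions, in duplicate, for 72 h at 37° C. Proliferation measured by [3H]-thymidine incorporation during the final 6 h, read by liquid scintillation counting.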

[3] = tested on: NF-AT; test: NF-AT Inhibition Assay Directed β-Galactosidase Expression in FGL-5 cells; format: cell-based; settings: 50% inhibition of NF-AT directed β-galactosidase activity in FGL-5 cells stimulated with phorbol dibutyrate and ionomycin; TABLE 3
Method: 3) NF-AT Assay Stimulation of T-cells leads to the appearance of several transcription factors, including one designated "NF-AT". These factors are involved in regulation of gene expression required for immunologic activation. Some of these transcription factors appear to have functions in a wide variety of cell types. By contrast, NF-AT is found primarily in T-cells and its role is restricted to early gene activation. […] Inhibition of NF-AT activity is measured using FGL-5 cells. FGL-5 is a cloned line of stably transfected Jurkat T-cells that contain two construct in which three tandem copies of the NF-AT DNA binding site direct transcription of both murine CD8 and the lacZ gene, encoding β-galactosidase ([…] et al., 1990, Genes & Development 4:1823). When these cells are stimulated with phorbol esters which activate protein kinase C and calcium ionophore to raise the intracellular calcium concentration, transcriptionally active NF-AT is produced. In T-cells, this normally leads to the expression of IL-2, T-cell growth factor. However, in FGL-5 cells NF-AT activation leads to the production of β-galactosidase which can be detected using an appropriate substrate. […] NF-AT Inhibition Assay Directed β-Galactosidase Expression This assay was performed essentially as described (Bierer et al., 1990, Proc. Natl. Acad. Sci. 87:9231). […] The assays were done with exponentially growing cells whose density was not greater than 0.5 million cells/ml. The cells were resuspended to 3 million cells/ml in medium and 0.1 ml was added to wells of a 96-well plate. The compounds of the present invention were dissolved in either ethanol or dimethylsulfoxide at 10 mM and […] of various dilutions in medium were added to cells in duplicate wells. Treatment controls consisted of duplicate wells containing 0.5 ml/well of either medium, ethanol or dimethylsulfoxide. The ethanol and dimethyl sulfoxide were at the same concentration as was used for the compounds. […] Phorbol dibutyrate (Sigma) and Ionomycin (Calbiochem) were dissolved at 50 μg/ml and 2 mM, respectively and stored at -70° C. […] For unstimulated cell controls, 0.5 ml/well of medium was added to duplicate wells. The plates were incubated overnight (16-18 hours) at 37° C. in a humidified atmosphere of 5% CO2 and air. β-galactosidase activity was measured as the fluorescence generated by the cleavage of 4-methyl umbelliferyl-β-D-galactoside (Sigma) at the β-galactoside bond. After overnight incubation, the cells were centrifuged at 500×g for 3 minutes in the 96-well plates and washed 3 times with PBS. […] The percent inhibition by each concentration of the compounds was calculated as: […]

Chain of FKBP (P62942 whole entry): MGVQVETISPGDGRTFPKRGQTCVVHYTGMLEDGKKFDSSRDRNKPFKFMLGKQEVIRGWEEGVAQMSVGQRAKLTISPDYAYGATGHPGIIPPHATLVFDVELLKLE

Row | SMILES | IC50 [1] [µM] | IC50 [3] [µM] | IC50 [2] [µM]
1 | CC[C@H](C)[C@H](NC(=O)[C@@H]1CCCN1CC(=O)C1CCc2ccccc2O1)C(=O)NCc1ccccc1 (stereo partly drawn) [Example 99, L-Isoleucine, N-[1-(2-(Chroman-2-yl)-2-Oxoethyl)-L-Prolyl] Benzylamide Hydrochloride Salt] | 5 | > 15 | > 15
2 | CC[C@H](C)[C@H](NC(=O)[C@@H]1CCCN1CC(=O)c1cc2ccccc2o1)C(=O)NCc1ccccc1 [Example 100, L-Isoleucine, N-[1-(2-(Benzofuran-2-yl)-2-Oxoethyl)-L-Prolyl] Benzylamide Hydrochloride Salt] | > 5 | > 15 | > 15
3 | CC[C@H](C)[C@H](NC(=O)[C@@H]1CCCN1CC(=O)c1ccc(OC(=O)c2ccccc2)cc1)C(=O)NCc1ccccc1 [Example 102, L-Isoleucine, N-[1-(2-(4-Benzoyloxyphenyl)-2-Oxoethyl)-L-Prolyl] Benzylamide] | 5 | > 15 | > 15
4 | CC[C@H](C)[C@H](NC(=O)[C@@H]1CCCN1CC(=O)C1(c2ccc(C)cc2)CCCCC1)C(=O)NCc1ccccc1 [Example 113, L-Isoleucine, N-[1-(2-(1-(4-Methylphenyl)cyclohexyl)-2-Oxoethyl)-L-Prolyl] Benzylamide] | < 5 | > 15 | 8
5 | CC[C@H](C)[C@H](NC(=O)[C@@H]1CCCN1CC(=O)C1(c2ccc(Cl)cc2)CCCCC1)C(=O)NCc1ccccc1 [Example 114, L-Isoleucine, N-[1-(2-(1-(4-Chlorophenyl)cyclohexyl)-2-Oxoethyl)-L-Prolyl] Benzylamide] | < 5 | 10 | 7
6 | CC[C@H](C)[C@H](NC(=O)[C@@H]1CCCN1CC(=O)c1ccc(OC)c(OC)c1OC)C(=O)NCc1ccccc1 [Example 115, L-Isoleucine, N-[1-(2-(2,3,4-Trimethoxyphenyl)-2-Oxoethyl)-L-Prolyl] Benzylamide] | > 5 | > 15 | 7
7 | CC[C@H](C)[C@H](NC(=O)[C@@H]1CCCN1CC(=O)C1(c2ccccc2)CCCCC1)C(=O)NCc1ccccc1 [Example 116, L-Isoleucine, N-[1-(2-(1-Phenylcyclohexyl)-2-Oxoethyl)-L-Prolyl] Benzylamide] | < 5 | 14 | 6
8 | CC[C@H](C)[C@H](NC(=O)[C@@H]1CCCN1CC(=O)c1cc(OC)c(OC)cc1OC)C(=O)NCc1ccccc1 [Example 117, L-Isoleucine, N-[1-(2-(2,4,5-Trimethoxyphenyl)-2-Oxoethyl)-L-Prolyl] Benzylamide] | < 5 | > 15 | > 15
9 | COc1cc(C(=O)CN2CCC[C@H]2C(=O)NCc2ccccc2)cc(OC)c1OC [Example 120, L-Proline, 1-[2-(3,4,5-Trimethoxyphenyl)-2-Oxoethyl] Benzylamide Hydrochloride] | > 5 | > 15 | 7
10 | COc1cc(C(=O)CN2CCC[C@H]2C(=O)NCCc2ccccc2)cc(OC)c1OC [Example 121, L-Proline, 1-[2-(3,4,5-Trimethoxyphenyl)-2-Oxoethyl] 2-Phenethylamide Hydrochloride] | > 5 | > 15 | 7
11 | COc1cc(C(=O)CN2CCC[C@H]2C(=O)NCCCc2ccccc2)cc(OC)c1OC [Example 122, L-Proline, 1-[2-(3,4,5-Trimethoxyphenyl)-2-Oxoethyl] 3-Phenylpropylamide Hydrochloride] | > 5 | > 15 | 8

The next lines start with results.

Row | IC50 [1] [µM] | IC50 [3] [µM] | SMILES | IC50 [2] [µM]
12 | < 5 | > 15 | CC[C@H](C)[C@H](NC(=O)[C@@H]1CCCN1CC(=O)c1cccc(OC(=O)c2ccccc2)c1)C(=O)NCc1ccccc1 [Example 101, L-Isoleucine, N-[1-(2-(3-Benzoyloxyphenyl)-2-Oxoethyl)-L-Prolyl] Benzylamide] | > 15
13 | < 5 | > 15 | CC[C@H](C)[C@H](NC(=O)[C@@H]1CCCN1CC(=O)c1ccccc1OC(=O)c1ccccc1)C(=O)NCc1ccccc1 [Example 103, L-Isoleucine, N-[1-(2-(2-Benzoyloxyphenyl)-2-Oxoethyl)-L-Prolyl] Benzylamide] | > 15
14 | < 5 | > 15 | CC[C@H](C)[C@H](NC(=O)[C@@H]1CCCN1CC(=O)c1cccc(Oc2ccccc2)c1)C(=O)NCc1ccccc1 [Example 104, L-Isoleucine, N-[1-(2-(3-Phenoxyphenyl)-2-Oxoethyl)-L-Prolyl] Benzylamide] | > 15
15 | < 5 | > 15 | CC[C@H](C)[C@H](NC(=O)[C@@H]1CCCN1CC(=O)c1ccccc1Oc1ccccc1)C(=O)NCc1ccccc1 [Example 105, L-Isoleucine, N-[1-(2-(2-Phenoxyphenyl)-2-Oxoethyl)-L-Prolyl] Benzylamide] | > 15
16 | < 5 | > 15 | CCOc1cc(C(=O)CN2CCC[C@H]2C(=O)N[C@H](C(=O)NCc2ccccc2)[C@@H](C)CC)cc(OCC)c1OCC [Example 106, L-Isoleucine, N-[1-(2-(3,4,5-Triethoxyphenyl)-2-Oxoethyl)-L-Prolyl] Benzylamide] | > 15
17 | < 5 | 0.6 | CC[C@H](C)[C@H](NC(=O)[C@@H]1CCCN1CC(=O)c1ccc2c(c1)OCO2)C(=O)NCc1ccccc1 [Example 107, L-Isoleucine, N-[1-(2-(Benzo[1,3]dioxol-5-yl)-2-Oxoethyl)-L-Prolyl] Benzylamide] | 1
18 | < 5 | > 15 | CC[C@H](C)[C@H](NC(=O)[C@@H]1CCCN1CC(=O)c1ccc(OCCOc2ccccc2)cc1)C(=O)NCc1ccccc1 [Example 108, L-Isoleucine, N-[1-{2-Oxo-2-[4-(2-Phenoxyethoxy)-Phenyl]-Ethyl}-L-Prolyl] Benzylamide] | > 15
19 | < 5 | > 15 | CC[C@H](C)[C@H](NC(=O)[C@@H]1CCCN1CC(=O)c1ccc(Oc2ccccc2)cc1)C(=O)NCc1ccccc1 [Example 109, L-Isoleucine, N-[1-(2-(4-Phenoxyphenyl)-2-Oxoethyl)-L-Prolyl] Benzylamide] | 5
20 | < 5 | > 15 | CC[C@H](C)[C@H](NC(=O)[C@@H]1CCCN1CC(=O)c1c(OC)cc(OC)cc1OC)C(=O)NCc1ccccc1 [Example 110, L-Isoleucine, N-[1-(2-(2,4,6-Trimethoxyphenyl)-2-Oxoethyl)-L-Prolyl] Benzylamide] | 6
21 | < 5 | > 15 | CC[C@H](C)[C@H](NC(=O)[C@@H]1CCCN1CC(=O)c1cccc(OC)c1OC)C(=O)NCc1ccccc1 [Example 111, L-Isoleucine, N-[1-(2-(2,3-Dimethoxyphenyl)-2-Oxoethyl)-L-Prolyl] Benzylamide] | 7
22 | < 5 | > 15 | CC[C@H](C)[C@H](NC(=O)[C@@H]1CCCN1CC(=O)c1c(OC)cccc1OC)C(=O)NCc1ccccc1 [Example 112, L-Isoleucine, N-[1-(2-(2,6-Dimethoxyphenyl)-2-Oxoethyl)-L-Prolyl] Benzylamide] | 7
